Square brackets hold non-standard residues; d marks the D form. Peptide text beside a SMILES is read from it. Nle = CCCC[C@H](N)C(=O)O
Assays:
[1] = target: T1, cultured rat pituitary cells (Rattus norvegicus, UniProt P35353); experiment: Stimulation of ACTH and β-endorphin secretion by cultured rat pituitary cells (general procedure of Example III); type: cell-based; settings: general procedure of Example III
T1 sequence (P35353 24-415): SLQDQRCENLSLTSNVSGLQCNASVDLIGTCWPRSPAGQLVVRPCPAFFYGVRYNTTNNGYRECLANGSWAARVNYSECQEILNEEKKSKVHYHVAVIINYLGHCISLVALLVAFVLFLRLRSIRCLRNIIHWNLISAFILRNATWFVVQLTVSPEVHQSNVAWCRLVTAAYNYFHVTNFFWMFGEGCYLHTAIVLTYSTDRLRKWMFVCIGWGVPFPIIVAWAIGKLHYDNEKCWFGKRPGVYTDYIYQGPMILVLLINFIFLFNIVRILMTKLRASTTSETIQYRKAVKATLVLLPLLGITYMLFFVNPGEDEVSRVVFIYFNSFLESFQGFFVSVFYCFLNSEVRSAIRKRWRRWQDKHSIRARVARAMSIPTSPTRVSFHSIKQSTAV
Description: The synthetic peptide AHC and oCRF were examined for their effects on the secretion of ACTH and B-endorphin in vitro and was also in vivo. The potency of synthetic oCRF to stimulate the secretion of ACTH and β-endorphin by cultured rat pituitary cells was measured using the procedure as generally set forth in Endocrinology, 91, 562 (1972). […] In.vivo testing is carried out using the general procedure set forth in C. Rivier et al., Science, 218, 377 (1982).

[2] = Lowering of blood pressure, in vivo testing by the general procedure of Example III

| SMILES | secretion of ACTH and β-END-LI [1] | lowering of blood pressure [2] |
| --- | --- | --- |
| CCCC[C@H](NC(=O)[C@H](CCC(=O)O)NC(=O)[C@H](CC(C)C)NC(=O)[C@@H](NC(=O)[C@H](CCC(=O)O)NC(=O)[C@H](CCCNC(=N)N)NC(=O)[C@H](CC(C)C)NC(=O)[C@H](CC(C)C)NC(=O)[C@H](Cc1c[nH]cn1)NC(=O)[C@H](Cc1ccccc1)NC(=O)[C@@H](NC(=O)[C@H](CC(C)C)NC(=O)[C@H](CC(=O)O)NC(=O)[C@H](CC(C)C)NC(=O)[C@H](CO)NC(=O)[C@@H](NC(=O)[C@@H]1CCCN1C(=O)[C@H]1CCCN1)[C@@H](C)CC)[C@@H](C)O)C(C)C)C(=O)N[C@@H](C)C(=O)N[C@@H](CCCNC(=N)N)C(=O)N[C@@H](C)C(=O)N[C@@H](CCC(=O)O)C(=O)N[C@@H](CCC(N)=O)C(=O)N[C@@H](CC(C)C)C(=O)N[C@@H](C)C(=O)N[C@@H](CCC(N)=O)C(=O)N[C@@H](CCC(N)=O)C(=O)N[C@@H](C)C(=O)N[C@@H](Cc1c[nH]cn1)C(=O)N[C@@H](CO)C(=O)N[C@@H](CC(N)=O)C(=O)N[C@@H](CCCNC(=N)N)C(=O)N[C@@H](CCCCN)C(=O)N[C@@H](CC(C)C)C(=O)N[C@@H](CCSC)C(=O)N[C@@H](CCC(=O)O)C(=O)N[C@H](C(=O)N[C@H](C(N)=O)[C@@H](C)CC)[C@@H](C)CC [[D-Pro^4, Nle^21,38]-rCRF(4-41)] (H-[dP]PISLDLTFHLLREVLE[Nle]ARAEQLAQQAHSNRKLMEII-NH2) | stimulates the secretion of ACTH and B-END-LI in an amount greater than oCRF | very significant lowering of blood pressure |
| CC[C@H](C)[C@H](NC(=O)[C@H](CC(=O)O)NC(=O)[C@H](CC(C)C)NC(=O)[C@H](CC(C)C)NC(=O)[C@H](CCCCN)NC(=O)[C@H](CCCNC(=N)N)NC(=O)[C@H](CC(N)=O)NC(=O)[C@H](CO)NC(=O)[C@H](Cc1c[nH]cn1)NC(=O)[C@H](C)NC(=O)[C@H](CCC(N)=O)NC(=O)[C@H](CCC(N)=O)NC(=O)[C@H](C)NC(=O)[C@H](CC(C)C)NC(=O)[C@H](CCC(N)=O)NC(=O)[C@H](CC(=O)O)NC(=O)[C@H](C)NC(=O)[C@H](CCCCN)NC(=O)[C@H](CC(=O)O)NC(=O)[C@H](CCSC)NC(=O)[C@H](CCC(=O)O)NC(=O)[C@H](CC(C)C)NC(=O)[C@@H](NC(=O)[C@H](CCC(=O)O)NC(=O)[C@H](CCCNC(=N)N)NC(=O)[C@H](CC(C)C)NC(=O)[C@H](CC(C)C)NC(=O)[C@H](Cc1c[nH]cn1)NC(=O)[C@H](Cc1ccccc1)NC(=O)[C@@H](NC(=O)[C@H](CC(C)C)NC(=O)[C@H](CC(=O)O)NC(=O)[C@H](CC(C)C)NC(=O)[C@H](CO)NC(=O)[C@@H](NC(=O)[C@H]1CCCN1)[C@@H](C)CC)[C@@H](C)O)C(C)C)C(=O)N[C@@H](C)C(N)=O [[D-Pro^4,Asp^22]-oCRF(4-41)] (H-[dP]ISLDLTFHLLREVLEMDKADQLAQQAHSNRKLLDIA-NH2) | stimulates | very significant lowering of blood pressure |
| CCCC[C@H](NC(=O)[C@H](CCC(=O)O)NC(=O)[C@H](CC(C)C)NC(=O)[C@H](CCCC)NC(=O)[C@H](CCC(=O)O)NC(=O)[C@H](CCCNC(=N)N)NC(=O)[C@H](CC(C)C)NC(=O)[C@H](CC(C)C)NC(=O)[C@H](Cc1c[nH]cn1)NC(=O)[C@H](Cc1ccccc1)NC(=O)[C@@H](NC(=O)[C@H](CC(C)C)NC(=O)[C@H](CC(=O)O)NC(=O)[C@H](CC(C)C)NC(=O)[C@H](CO)NC(=O)[C@@H](NC(=O)[C@@H]1CCCN1C(=O)[C@@H]1CCCN1C(=O)[C@H](N)Cc1ccc(O)cc1)[C@@H](C)CC)[C@@H](C)O)C(=O)N[C@@H](C)C(=O)N[C@@H](CCCCN)C(=O)N[C@@H](C)C(=O)N[C@@H](CCC(=O)O)C(=O)N[C@@H](CCC(N)=O)C(=O)N[C@@H](CCC(=O)O)C(=O)N[C@@H](C)C(=O)N[C@@H](CCC(=O)O)C(=O)N[C@@H](CCC(N)=O)C(=O)N[C@@H](C)C(=O)N[C@@H](C)C(=O)N[C@@H](CC(C)C)C(=O)N[C@@H](CC(N)=O)C(=O)N[C@@H](CCCNC(=N)N)C(=O)N[C@@H](CC(C)C)C(=O)N[C@@H](CC(C)C)C(=O)N[C@@H](CC(C)C)C(=O)N[C@@H](CCC(=O)O)C(=O)N[C@@H](CCC(=O)O)C(=O)N[C@@H](C)C(N)=O [[D-Tyr^3, Nle^18,21)-AHC(3-41)] (H-[dY]PPISLDLTFHLLRE[Nle]LE[Nle]AKAEQEAEQAALNRLLLEEA-NH2) | stimulates | very significant lowering of blood pressure |
| CC[C@H](C)[C@H](NC(=O)[C@H](CCC(=O)O)NC(=O)[C@H](CC(=O)O)NC(=O)[C@H](CCSC)NC(=O)[C@H](CC(C)C)NC(=O)[C@H](CCCCNC(=N)N)NC(=O)[C@H](CCCNC(=N)N)NC(=O)[C@H](CC(N)=O)NC(=O)[C@H](CC(N)=O)NC(=O)[C@H](C)NC(=O)[C@H](C)NC(=O)[C@H](CCC(N)=O)NC(=O)[C@H](CCC(N)=O)NC(=O)[C@H](CCCCN)NC(=O)[C@H](CC(C)C)NC(=O)[C@H](CCCCN)NC(=O)[C@H](CCC(=O)O)NC(=O)[C@H](CCC(N)=O)NC(=O)[C@H](CCCCN)NC(=O)[C@H](CCC(=O)O)NC(=O)[C@@H](NC(=O)[C@H](CCC(=O)O)NC(=O)[C@@H](NC(=O)[C@H](CCSC)NC(=O)[C@H](CCCCN)NC(=O)[C@H](CCCNC(=N)N)NC(=O)[C@H](CC(C)C)NC(=O)[C@H](CC(C)C)NC(=O)[C@H](CCC(=O)O)NC(=O)[C@H](CC(C)C)NC(=O)[C@H](CO)NC(=O)[C@H](CC(C)C)NC(=O)[C@H](CC(=O)O)NC(=O)[C@@H](NC(=O)[C@H](CO)NC(=O)[C@@H](NC(=O)[C@@H]1CCCN1C(=O)[C@@H]1CCCN1C(=O)CNC(=O)[C@@H]1CCC(=O)N1)[C@@H](C)CC)[C@@H](C)CC)[C@@H](C)CC)[C@@H](C)CC)C(N)=O [[Leu^26, Har^35, Met, Glu^39]-sauvagine] | stimulates | very significant lowering of blood pressure |
| CCCC[C@H](NC(=O)[C@H](CCC(=O)O)NC(=O)[C@H](CC(C)C)NC(=O)[C@H](CCCC)NC(=O)[C@H](CCC(=O)O)NC(=O)[C@H](CCCNC(=N)N)NC(=O)[C@H](CC(C)C)NC(=O)[C@H](CC(C)C)NC(=O)[C@H](Cc1c[nH]cn1)NC(=O)[C@H](Cc1ccccc1)NC(=O)[C@@H](NC(=O)[C@H](CC(C)C)NC(=O)[C@H](CC(=O)O)NC(=O)[C@H](CC(C)C)NC(=O)[C@H](CO)NC(=O)[C@@H](NC(=O)[C@@H]1CCCN1)[C@@H](C)CC)[C@@H](C)O)C(=O)N[C@@H](C)C(=O)N[C@@H](CCCNC(=N)N)C(=O)N[C@@H](C)C(=O)N[C@@H](CCC(=O)O)C(=O)N[C@@H](CCC(N)=O)C(=O)N[C@@H](CCC(=O)O)C(=O)N[C@@H](C)C(=O)N[C@@H](CCC(=O)O)C(=O)N[C@@H](CCC(N)=O)C(=O)N[C@@H](C)C(=O)N[C@@H](C)C(=O)N[C@@H](CC(C)C)C(=O)N[C@@H](CC(N)=O)C(=O)N[C@@H](CCCNC(=N)N)C(=O)N[C@@H](CC(C)C)C(=O)N[C@@H](CC(C)C)C(=O)N[C@@H](CC(C)C)C(=O)N[C@@H](CCC(=O)O)C(=O)N[C@@H](CCC(=O)O)C(=O)N[C@@H](C)C(N)=O [[Nle^18,21, Arg^23]-AHC(5-41)] (H-PISLDLTFHLLRE[Nle]LE[Nle]ARAEQEAEQAALNRLLLEEA-NH2) | stimulates | very significant lowering of blood pressure |
| CCCC[C@H](NC(=O)[C@H](CCC(=O)O)NC(=O)[C@H](CC(C)C)NC(=O)[C@H](CCCC)NC(=O)[C@H](CCC(=O)O)NC(=O)[C@H](CCCNC(=N)N)NC(=O)[C@H](CC(C)C)NC(=O)[C@H](CC(C)C)NC(=O)[C@H](Cc1c[nH]cn1)NC(=O)[C@H](Cc1ccccc1)NC(=O)[C@@H](NC(=O)[C@H](CC(C)C)NC(=O)[C@H](CC(=O)O)NC(=O)[C@H](CC(C)C)NC(=O)[C@H](CO)NC(=O)[C@@H](N)[C@@H](C)CC)[C@@H](C)O)C(=O)N[C@@H](C)C(=O)N[C@@H](CCCCN)C(=O)N[C@@H](C)C(=O)N[C@@H](CCC(=O)O)C(=O)N[C@@H](CCC(N)=O)C(=O)N[C@@H](CCC(=O)O)C(=O)N[C@@H](C)C(=O)N[C@@H](CCC(=O)O)C(=O)N[C@@H](CCC(N)=O)C(=O)N[C@@H](C)C(=O)N[C@@H](C)C(=O)N[C@@H](CC(C)C)C(=O)N[C@@H](CC(N)=O)C(=O)N[C@@H](CCCNC(=N)N)C(=O)N[C@@H](CCCNC(=N)N)C(=O)N[C@@H](CC(C)C)C(=O)N[C@@H](CC(C)C)C(=O)N[C@@H](CCC(=O)O)C(=O)N[C@@H](CCC(=O)O)C(=O)N[C@@H](C)C(N)=O [[Nle^18,21, Arg^36]-AHC(6-41)] (H-ISLDLTFHLLRE[Nle]LE[Nle]AKAEQEAEQAALNRRLLEEA-NH2) | stimulates | very significant lowering of blood pressure |
